# Read-outs that look alike come from different tables or passages of the source.
# System: T1, TaME (Thermoplasma acidophilum NADP+-malic enzyme)
# T1 construct: dimer (from structural model); Asn304 and Thr46* named at active site
# Assay: NADPH formation, oxidative decarboxylation, Michaelis-Menten
# Assay type: biochemical
# Details: NADP+ as cofactor, standard assay conditions in supplement section 1.3.1, read-out: Km(substrate)
# Text: NADPH formation, oxidative decarboxylation, Michaelis-Menten on TaME (Thermoplasma acidophilum NADP+-malic enzyme)
Compound,Km (0.05-1.0 mM malate),Km (0.03-0.60 mM isocitrate)
"O=C(O)C[C@H](O)C(=O)O [1b, Malate]",879 ± 149 µM,
"O=C(O)C[C@H](C(=O)O)[C@@H](O)C(=O)O [2b, Isocitrate]",,23.7 ± 5.2 µM

# Reference: paper PMC11134350, “Substrate Promiscuity of Thermoplasma acidophilum Malic Enzyme for CO2 Fixation Reaction” (JACS Au, 2024)
